Results: ChEMBL document CHEMBL1201861, “Genomics of Drug Sensitity in Cancer screening data, Wellcome Trust Sanger Institute”

Legend:
Assay in all cases: cells
Assay type in all cases: functional, cell-based, Homo sapiens
KM-H2 = details: Homo sapiens, KM-H2;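 note: growth inhibition of KM-H2 cells, read out by a cell viability assay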
Description: SANGER: Inhibition of human KM-H2 cell growth in a cell viability assay.

ACN = details: Homo sapiens, ACN;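 note: growth inhibition of the human ACN cell line, read out via cell viability testing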
Description: SANGER: Inhibition of human ACN cell growth in a cell viability assay.

LS-513 = details: Homo sapiens, LS-513
Description: SANGER: Inhibition of human LS-513 cell growth in a cell viability assay.

KS-1 = details: Homo sapiens, KS-1;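 note: growth inhibition of KS-1 cells, read out with a cell viability assay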
Description: SANGER: Inhibition of human KS-1 cell growth in a cell viability assay.

D-502MG = details: Homo sapiens, D-502MG
Description: SANGER: Inhibition of human D-502MG cell growth in a cell viability assay.

MHH-NB-11 = details: Homo sapiens, MHH-NB-11;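 note: growth inhibition of human MHH-NB-11 cells, read out by a cell viability assay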
Description: SANGER: Inhibition of human MHH-NB-11 cell growth in a cell viability assay.

EW-18 = details: Homo sapiens, EW-18;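 note: growth inhibition of EW-18 cells, read out by a cell viability assay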
Description: SANGER: Inhibition of human EW-18 cell growth in a cell viability assay.

NB10 = details: Homo sapiens, NB10;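 note: growth inhibition of NB10 cells, read out by a cell viability assay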
Description: SANGER: Inhibition of human NB10 cell growth in a cell viability assay.

DMS-79 = details: Homo sapiens, DMS-79;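 note: growth inhibition measured with a cell viability assay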
Description: SANGER: Inhibition of human DMS-79 cell growth in a cell viability assay.

KLE = details: Homo sapiens, KLE;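 note: growth inhibition of human KLE cells, read out with a cell viability assay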
Description: SANGER: Inhibition of human KLE cell growth in a cell viability assay.

NCI-H1648 = details: Homo sapiens, NCI-H1648;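 note: cell viability assay measuring inhibition of NCI-H1648 cell growth, from the Sanger screening data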
Description: SANGER: Inhibition of human NCI-H1648 cell growth in a cell viability assay.

CP66-MEL = details: Homo sapiens, CP66-MEL;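 note: growth inhibition of CP66-MEL cells determined in a cell viability assay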
Description: SANGER: Inhibition of human CP66-MEL cell growth in a cell viability assay.

IST-MES1 = details: Homo sapiens, IST-MES1;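 note: growth inhibition of IST-MES1 cells, measured with a cell viability assay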
Description: SANGER: Inhibition of human IST-MES1 cell growth in a cell viability assay.

SK-PN-DW = details: Homo sapiens, SK-PN-DW;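 note: growth inhibition measured with a viability assay on these cells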
Description: SANGER: Inhibition of human SK-PN-DW cell growth in a cell viability assay.

LB373-MEL-D = details: Homo sapiens, LB373-MEL-D;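 note: growth inhibition of the cell line, read out in a cell viability assay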
Description: SANGER: Inhibition of human LB373-MEL-D cell growth in a cell viability assay.

MMAC-SF = details: Homo sapiens, MMAC-SF;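 note: growth inhibition of human MMAC-SF cells, read out with a cell viability assay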
Description: SANGER: Inhibition of human MMAC-SF cell growth in a cell viability assay.

JVM-3 = details: Homo sapiens, JVM-3;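 note: growth inhibition of human JVM-3 cells, read out with a cell viability assay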
Description: SANGER: Inhibition of human JVM-3 cell growth in a cell viability assay.

LB1047-RCC = details: Homo sapiens, LB1047-RCC;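 note: inhibition of cell growth, determined with a cell viability assay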
Description: SANGER: Inhibition of human LB1047-RCC cell growth in a cell viability assay.

HDLM-2 = details: Homo sapiens, HDLM-2;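 note: cell viability assay measuring suppression of HDLM-2 proliferation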
Description: SANGER: Inhibition of human HDLM-2 cell growth in a cell viability assay.

RKO = details: Homo sapiens, RKO;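 note: growth inhibition of human RKO cells, read out with a cell viability assay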
Description: SANGER: Inhibition of human RKO cell growth in a cell viability assay.

HOP-62 = details: Homo sapiens, HOP-62;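 note: cell growth inhibition determined with a viability assay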
Description: SANGER: Inhibition of human HOP-62 cell growth in a cell viability assay.

COLO-800 = details: Homo sapiens, COLO-800;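 note: growth inhibition of COLO-800 cells, read out with a cell viability assay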
Description: SANGER: Inhibition of human COLO-800 cell growth in a cell viability assay.

SK-LMS-1 = details: Homo sapiens, SK-LMS-1;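 note: growth inhibition of human SK-LMS-1 cells, read out with a cell viability assay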
Description: SANGER: Inhibition of human SK-LMS-1 cell growth in a cell viability assay.

KMOE-2 = details: Homo sapiens, KMOE-2;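 note: growth inhibition of human KMOE-2 cells, read out with a cell viability assay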
Description: SANGER: Inhibition of human KMOE-2 cell growth in a cell viability assay.

ES8 = details: Homo sapiens, ES8;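 note: growth inhibition of human ES8 cells, read out with a cell viability assay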
Description: SANGER: Inhibition of human ES8 cell growth in a cell viability assay.

KARPAS-299 = details: Homo sapiens, KARPAS-299
Description: SANGER: Inhibition of human KARPAS-299 cell growth in a cell viability assay.

ATN-1 = details: Homo sapiens, ATN-1;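 note: growth inhibition of human ATN-1 cells, read out with a cell viability assay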
Description: SANGER: Inhibition of human ATN-1 cell growth in a cell viability assay.

ES3 = details: Homo sapiens, ES3;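 note: growth inhibition of ES3 cells, read out with a cell viability assay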
Description: SANGER: Inhibition of human ES3 cell growth in a cell viability assay.

GT3TKB = details: Homo sapiens, GT3TKB;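 note: growth inhibition of the cell line, read out with a cell viability assay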
Description: SANGER: Inhibition of human GT3TKB cell growth in a cell viability assay.

EC-GI-10 = details: Homo sapiens, EC-GI-10
Description: SANGER: Inhibition of human EC-GI-10 cell growth in a cell viability assay.

NEC8 = details: Homo sapiens, NEC8;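 note: growth inhibition of human NEC8 cells, read out by a cell viability assay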
Description: SANGER: Inhibition of human NEC8 cell growth in a cell viability assay.

TK-10 = details: Homo sapiens, TK-10;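 note: growth inhibition of TK-10 cells, read out in a cell viability assay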
Description: SANGER: Inhibition of human TK10 cell growth in a cell viability assay.

NCI-H1770 = details: Homo sapiens, NCI-H1770;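 note: growth inhibition of NCI-H1770 cells determined with a viability readout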
Description: SANGER: Inhibition of human NCI-H1770 cell growth in a cell viability assay.

NCI-H1092 = details: Homo sapiens, NCI-H1092;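 note: cell growth inhibition measured with a cell viability assay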
Description: SANGER: Inhibition of human NCI-H1092 cell growth in a cell viability assay.

D283 Med = details: Homo sapiens, D283 Med
Description: SANGER: Inhibition of human D-283MED cell growth in a cell viability assay.

CCRF-CEM = details: Homo sapiens, CCRF-CEM;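 note: inhibition of CCRF-CEM cell growth, measured by a cell viability assay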
Description: SANGER: Inhibition of human CCRF-CEM cell growth in a cell viability assay.

RS4-11 = details: Homo sapiens, RS4-11;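 note: growth inhibition of RS4-11 cells, read out by a cell viability assay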
Description: SANGER: Inhibition of human RS4-11 cell growth in a cell viability assay.

KNS-81-FD = details: Homo sapiens, KNS-81-FD;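 note: growth inhibition of KNS-81-FD cells, read out with a cell viability assay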
Description: SANGER: Inhibition of human KNS-81-FD cell growth in a cell viability assay.

NCI-H69 = details: Homo sapiens, NCI-H69;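 note: growth inhibition of the cell line, read out with a cell viability assay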
Description: SANGER: Inhibition of human NCI-H69 cell growth in a cell viability assay.

OMC-1 = details: Homo sapiens, OMC-1;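 note: growth inhibition of the OMC-1 cell line, measured by a cell viability assay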
Description: SANGER: Inhibition of human OMC-1 cell growth in a cell viability assay.

NCI-H1155 = details: Homo sapiens, NCI-H1155;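 note: cell growth inhibition measured by a viability assay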
Description: SANGER: Inhibition of human NCI-H1155 cell growth in a cell viability assay.

EW-3 = details: Homo sapiens, EW-3;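 note: cell viability assay read-out, IC50 reflects inhibition of growth of the EW-3 cells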
Description: SANGER: Inhibition of human EW-3 cell growth in a cell viability assay.

LC-2-ad = details: Homo sapiens, LC-2-ad;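 note: growth inhibition of human LC-2-ad cells, read out with a cell viability assay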
Description: SANGER: Inhibition of human LC-2-ad cell growth in a cell viability assay.

BE-13 = details: Homo sapiens, BE-13;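 note: growth inhibition of human BE-13 cells, measured with a cell viability assay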
Description: SANGER: Inhibition of human BE-13 cell growth in a cell viability assay.

BB65-RCC = details: Homo sapiens, BB65-RCC;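 note: growth inhibition of the cell line, measured with a cell viability assay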
Description: SANGER: Inhibition of human BB65-RCC cell growth in a cell viability assay.

IST-MEL1 = details: Homo sapiens, IST-MEL1;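 note: growth inhibition of the cell line, read out with a cell viability assay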
Description: SANGER: Inhibition of human IST-MEL1 cell growth in a cell viability assay.

NCI-H747 = details: Homo sapiens, NCI-H747;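 note: growth inhibition of human NCI-H747 cells, read out by a cell viability assay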
Description: SANGER: Inhibition of human NCI-H747 cell growth in a cell viability assay.

HT = details: Homo sapiens, HT
Description: SANGER: Inhibition of human HT cell growth in a cell viability assay.

N[C@@H](CSC(c1ccccc1)(c1ccccc1)c1ccccc1)C(=O)O [S-TRITYL-L-CYSTEINE] was tested, and the IC50 (KM-H2) was 2.9 µM, the IC50 (ACN) was 1.46 µM and the IC50 (LS-513) was over 5.12 µM. For the same molecule, the IC50 (KS-1) was 0.842 µM, the IC50 (D-502MG) was over 5.12 µM and the IC50 (MHH-NB-11) was 4.67 µM. The IC50 (EW-18) was over 5.12 µM, the IC50 (NB10) was over 5.12 µM and the IC50 (DMS-79) was over 5.12 µM. It also gave an IC50 (KLE) of over 5.12 µM, an IC50 (NCI-H1648) of 0.602 µM and an IC50 (CP66-MEL) of 3.44 µM. It also gave an IC50 (IST-MES1) of over 5.12 µM, an IC50 (SK-PN-DW) of 1.35 µM and an IC50 (LB373-MEL-D) of 2.84 µM. For the same molecule, the IC50 (MMAC-SF) was 2.69 µM, the IC50 (JVM-3) was over 5.12 µM and the IC50 (LB1047-RCC) was 2.6 µM. The IC50 (HDLM-2) was 1.5 µM, the IC50 (RKO) was 0.677 µM and the IC50 (HOP-62) was 2.98 µM. It also gave an IC50 (COLO-800) of over 5.12 µM, an IC50 (SK-LMS-1) of over 5.12 µM and an IC50 (KMOE-2) of over 5.12 µM. The IC50 (ES8) was 0.432 µM, the IC50 (KARPAS-299) was 4.18 µM and the IC50 (ATN-1) was 0.859 µM. For the same molecule, the IC50 (ES3) was over 5.12 µM, the IC50 (GT3TKB) was 0.285 µM and the IC50 (EC-GI-10) was over 5.12 µM. The IC50 (NEC8) was 2.69 µM, the IC50 (TK-10) was over 5.12 µM and the IC50 (NCI-H1770) was over 5.12 µM. It also gave an IC50 (NCI-H1092) of over 5.12 µM, an IC50 (D283 Med) of over 5.12 µM and an IC50 (CCRF-CEM) of 2.11 µM. It also gave an IC50 (RS4-11) of 1.3 µM, an IC50 (KNS-81-FD) of over 5.12 µM and an IC50 (NCI-H69) of 3.19 µM. The IC50 (OMC-1) was over 5.12 µM, the IC50 (NCI-H1155) was 3.8 µM and the IC50 (EW-3) was 4.92 µM. The IC50 (LC-2-ad) was 0.537 µM, the IC50 (BE-13) was 1.08 µM and the IC50 (BB65-RCC) was 2.38 µM. For the same molecule, the IC50 (IST-MEL1) was over 5.12 µM, the IC50 (NCI-H747) was over 5.12 µM and the IC50 (HT) was 2.69 µM.
CCN(CC)CCNC(=O)c1c(C)[nH]c(/C=C2\C(=O)Nc3ccc(F)cc32)c1C [SUNITINIB] showed an IC50 (KM-H2) of over 8 µM, an IC50 (ACN) of over 8 µM and an IC50 (LS-513) of over 8 µM. The IC50 (KS-1) was 1.69 µM, the IC50 (D-502MG) was over 8 µM and the IC50 (MHH-NB-11) was over 8 µM. The IC50 (EW-18) was over 8 µM, the IC50 (NB10) was over 8 µM and the IC50 (DMS-79) was over 8 µM. The IC50 (KLE) was over 8 µM, the IC50 (NCI-H1648) was over 8 µM and the IC50 (CP66-MEL) was over 8 µM. It also gave an IC50 (IST-MES1) of over 8 µM, an IC50 (SK-PN-DW) of over 8 µM and an IC50 (LB373-MEL-D) of over 8 µM. It also gave an IC50 (MMAC-SF) of 6.11 µM, an IC50 (JVM-3) of over 8 µM and an IC50 (LB1047-RCC) of 1.82 µM. The IC50 (HDLM-2) was 6.32 µM, the IC50 (RKO) was over 8 µM and the IC50 (HOP-62) was 4.34 µM. It also gave an IC50 (COLO-800) of over 8 µM, an IC50 (SK-LMS-1) of 3.83 µM and an IC50 (KMOE-2) of over 8 µM. For the same molecule, the IC50 (ES8) was over 8 µM, the IC50 (KARPAS-299) was 2.11 µM and the IC50 (ATN-1) was 3.67 µM. For the same molecule, the IC50 (ES3) was over 8 µM, the IC50 (GT3TKB) was 6.61 µM and the IC50 (EC-GI-10) was over 8 µM. The IC50 (NEC8) was over 8 µM, the IC50 (TK-10) was over 8 µM and the IC50 (NCI-H1770) was over 8 µM. The IC50 (NCI-H1092) was over 8 µM, the IC50 (D283 Med) was over 8 µM and the IC50 (CCRF-CEM) was over 8 µM. It also gave an IC50 (KNS-81-FD) of over 8 µM, an IC50 (NCI-H69) of over 8 µM and an IC50 (OMC-1) of over 8 µM. It also gave an IC50 (NCI-H1155) of over 8 µM, an IC50 (EW-3) of 6.43 µM and an IC50 (LC-2-ad) of 1.11 µM. The IC50 (BE-13) was 3.23 µM, the IC50 (BB65-RCC) was over 8 µM and the IC50 (IST-MEL1) was over 8 µM. The IC50 (NCI-H747) was over 8 µM and the IC50 (HT) was over 8 µM.
